According to US11180474B2 (BRISTOL-MYERS SQUIBB COMPANY, priority 2016, dated 2021):

Assays:
human TLR8 = molecular target: T1, human TLR8 (Homo sapiens, UniProt Q9NR97); experiment: TLR8 inhibition reporter assay (HEK-Blue cells, SEAP reporter, R848 stimulation); type: cell-based; conditions: HEK-Blue cells overexpressing human TLR8, R848 15.9 μM
T1 construct: host or cells: HEK-Blue cells
T1 sequence (Q9NR97 27-1041): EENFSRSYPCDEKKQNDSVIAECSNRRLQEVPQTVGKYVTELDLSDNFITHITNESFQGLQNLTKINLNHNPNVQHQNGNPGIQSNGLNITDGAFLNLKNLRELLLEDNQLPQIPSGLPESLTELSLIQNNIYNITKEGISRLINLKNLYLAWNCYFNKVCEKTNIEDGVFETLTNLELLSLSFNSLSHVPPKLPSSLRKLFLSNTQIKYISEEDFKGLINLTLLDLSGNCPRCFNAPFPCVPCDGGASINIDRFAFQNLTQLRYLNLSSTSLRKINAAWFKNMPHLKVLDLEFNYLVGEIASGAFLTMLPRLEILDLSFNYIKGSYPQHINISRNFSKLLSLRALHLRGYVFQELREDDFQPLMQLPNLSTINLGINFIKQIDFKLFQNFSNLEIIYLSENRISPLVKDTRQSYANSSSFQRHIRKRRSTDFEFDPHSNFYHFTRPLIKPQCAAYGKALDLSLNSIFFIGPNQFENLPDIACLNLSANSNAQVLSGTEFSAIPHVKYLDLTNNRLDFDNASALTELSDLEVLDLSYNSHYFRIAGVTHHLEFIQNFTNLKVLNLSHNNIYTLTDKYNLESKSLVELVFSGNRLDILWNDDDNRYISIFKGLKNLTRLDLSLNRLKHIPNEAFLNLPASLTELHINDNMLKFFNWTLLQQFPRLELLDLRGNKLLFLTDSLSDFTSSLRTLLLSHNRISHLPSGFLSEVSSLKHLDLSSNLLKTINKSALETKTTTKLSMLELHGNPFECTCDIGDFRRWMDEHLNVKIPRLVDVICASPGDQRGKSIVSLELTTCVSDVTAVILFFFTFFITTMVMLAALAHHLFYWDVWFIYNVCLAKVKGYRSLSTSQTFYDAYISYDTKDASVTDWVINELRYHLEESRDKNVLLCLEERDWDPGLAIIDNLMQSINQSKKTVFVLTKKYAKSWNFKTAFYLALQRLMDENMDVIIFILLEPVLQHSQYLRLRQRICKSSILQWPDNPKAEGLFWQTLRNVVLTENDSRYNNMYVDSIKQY
Method in brief: (§1)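 Cells (15000/well for TLR7, 20,000 for TLR8) were treated with compounds over 0.05 nM-50 μM final. After 22 h at 37° C, 5% CO2, SEAP was measured with HEK-Blue Detection reagent; percent inhibition was taken as reduction of agonist-plus-DMSO signal relative to a known inhibitor.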

human TLR7 = molecular target: T2, human TLR7 (Homo sapiens, UniProt Q9NYK1); experiment: TLR7 inhibition reporter assay (HEK-Blue cells, SEAP reporter, gardiquimod stimulation); type: cell-based; conditions: HEK-Blue cells overexpressing human TLR7, gardiquimod 7.5 μM
T2 construct: host or cells: HEK-Blue cells
T2 sequence (Q9NYK1 27-1049): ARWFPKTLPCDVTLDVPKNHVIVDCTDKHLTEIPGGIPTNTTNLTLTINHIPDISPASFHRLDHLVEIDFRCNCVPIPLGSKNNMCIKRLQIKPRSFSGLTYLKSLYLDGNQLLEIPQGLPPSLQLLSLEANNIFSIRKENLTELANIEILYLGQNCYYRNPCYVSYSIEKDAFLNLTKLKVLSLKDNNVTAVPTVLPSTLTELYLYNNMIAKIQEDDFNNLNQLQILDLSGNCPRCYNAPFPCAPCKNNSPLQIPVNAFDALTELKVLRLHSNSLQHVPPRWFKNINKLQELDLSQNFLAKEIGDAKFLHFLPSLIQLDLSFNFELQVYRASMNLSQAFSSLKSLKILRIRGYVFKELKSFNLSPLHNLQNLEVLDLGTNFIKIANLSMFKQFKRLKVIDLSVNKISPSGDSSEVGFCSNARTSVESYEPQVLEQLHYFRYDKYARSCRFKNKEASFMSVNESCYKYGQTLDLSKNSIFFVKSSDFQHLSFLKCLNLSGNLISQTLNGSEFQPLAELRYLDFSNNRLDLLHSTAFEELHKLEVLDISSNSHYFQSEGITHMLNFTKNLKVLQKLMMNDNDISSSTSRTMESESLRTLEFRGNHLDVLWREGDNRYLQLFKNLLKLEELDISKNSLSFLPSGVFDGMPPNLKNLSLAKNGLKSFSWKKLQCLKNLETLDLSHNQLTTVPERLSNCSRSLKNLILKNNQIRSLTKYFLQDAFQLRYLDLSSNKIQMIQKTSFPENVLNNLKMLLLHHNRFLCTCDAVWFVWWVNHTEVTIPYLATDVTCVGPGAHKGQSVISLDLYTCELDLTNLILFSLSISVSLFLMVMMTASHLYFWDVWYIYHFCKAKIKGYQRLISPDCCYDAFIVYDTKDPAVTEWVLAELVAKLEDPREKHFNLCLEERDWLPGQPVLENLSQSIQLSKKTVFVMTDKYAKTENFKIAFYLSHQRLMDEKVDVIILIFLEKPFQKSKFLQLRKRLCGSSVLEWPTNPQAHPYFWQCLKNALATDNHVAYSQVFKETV
Method in brief: as §1

Structure (SMILES)	IC50 (human TLR8) [nM]	IC50 (human TLR7) [nM]
COc1ccc(-c2[nH]c3ccc(C4CCNCC4F)cc3c2C(C)C)cc1OC (racemic) [Example 319, 2-(3,4-dimethoxyphenyl)-5-(3-fluoropiperidin-4-yl)-3-isopropyl-1H-indole]	46	45
COc1ccc(-c2[nH]c3ccc(C4CCNCC4F)cc3c2C(C)C)cc1OC (single isomer, unassigned) [Example 324, 2-(3,4-dimethoxyphenyl)-5-(3-fluoropiperidin-4-yl)-3-isopropyl-1H-indole]	20	51
COc1ccc(-c2[nH]c3ccc(C4CCNCC4(F)F)cc3c2C(C)C)cc1OC (stereo not shown) [Example 325, 5-(3,3-difluoropiperidin-4-yl)-2-(3,4-dimethoxyphenyl)-3-isopropyl-1H-indole]	147	269
COc1ccc(-c2[nH]c3ccc(C4CCN(C(=O)CCC(F)(F)F)CC4)cc3c2CC(F)(F)F)cc1OC [Example 350, 1-(4-(2-(3,4-dimethoxyphenyl)-3-(2,2,2-trifluoroethyl)-1H-indol-5-yl)piperidin-1-yl)-4,4,4-trifluorobutan-1-one]	2050	624
COc1ccc(-c2[nH]c3ccc(C4CCN(CC(=O)Nc5cc(C(C)(C)C)[nH]n5)CC4)cc3c2CC(F)(F)F)cc1OC [Example 387, N-(5-(tert-butyl)-1H-pyrazol-3-yl)-2-(4-(2-(3,4-dimethoxyphenyl)-3-(2,2,2-trifluoroethyl)-1H-indol-5-yl)piperidin-1-yl)acetamide]	587	994
COc1ccc(-c2[nH]c3ccc(C4CCN(C(=O)Cc5cccnc5)CC4)cc3c2CC(F)(F)F)cc1OC [Example 335, 1-(4-(2-(3,4-dimethoxyphenyl)-3-(2,2,2-trifluoroethyl)-1H-indol-5-yl)piperidin-1-yl)-2-(pyridin-3-yl)ethan-1-one]	632	331
COc1ccc(-c2[nH]c3ccc(C4CCN(C(=O)CCn5ccc6ccccc65)CC4)cc3c2CC(F)(F)F)cc1OC [Example 337, 1-(4-(2-(3,4-dimethoxyphenyl)-3-(2,2,2-trifluoroethyl)-1H-indol-5-yl)piperidin-1-yl)-3-(1H-indol-1-yl)propan-1-one]	5080	3570
COc1ccc(-c2[nH]c3ccc(C4CCNC(=O)C4)cc3c2C(C)C)cc1OC (stereo not shown) [Example 326, 4-(2-(3,4-dimethoxyphenyl)-3-isopropyl-1H-indol-5-yl)piperidin-2-one]	192	127
COc1ccc(-c2[nH]c3ccc(C4CCN(CC(=O)NCCN(C)C)CC4)cc3c2CC(F)(F)F)cc1OC [Example 380, 2-(4-(2-(3,4-dimethoxyphenyl)-3-(2,2,2-trifluoroethyl)-1H-indol-5-yl)piperidin-1-yl)-N-(2-(dimethylamino)ethyl)acetamide]	55	33
COc1ccc(-c2[nH]c3ccc(C4CCN(C(=O)CC(F)(F)F)CC4)cc3c2CC(F)(F)F)cc1OC [Example 339, 1-(4-(2-(3,4-dimethoxyphenyl)-3-(2,2,2-trifluoroethyl)-1H-indol-5-yl)piperidin-1-yl)-3,3,3-trifluoropropan-1-one]	822	331
COc1ccc(-c2[nH]c3ccc(C4CCNCC4F)cc3c2C(C)C)cc1OC (single isomer, unassigned) [Example 322, 2-(3,4-dimethoxyphenyl)-5-(3-fluoropiperidin-4-yl)-3-isopropyl-1H-indole]	22	21

Next, values leading:

IC50 (human TLR8) [nM]	IC50 (human TLR7) [nM]	Structure (SMILES)
221	33	COc1ccc(-c2[nH]c3ccc(C4CCN(C(=O)CCCn5ccnc5)CC4)cc3c2CC(F)(F)F)cc1OC [Example 331, 1-(4-(2-(3,4-dimethoxyphenyl)-3-(2,2,2-trifluoroethyl)-1H-indol-5-yl)piperidin-1-yl)-4-(1H-imidazol-1-yl)butan-1-one]
32	22	COc1ccc(-c2[nH]c3ccc(C4CCN(C(=O)CCN(C)C)CC4)cc3c2CC(F)(F)F)cc1OC [Example 340, 1-(4-(2-(3,4-dimethoxyphenyl)-3-(2,2,2-trifluoroethyl)-1H-indol-5-yl)piperidin-1-yl)-3-(dimethylamino)propan-1-one]
55	27	COc1ccc(-c2[nH]c3ccc(C4CCN(CC(=O)N(C)C5CCN(C)C5)CC4)cc3c2CC(F)(F)F)cc1OC (stereo not shown) [Example 370, 2-(4-(2-(3,4-dimethoxyphenyl)-3-(2,2,2-trifluoroethyl)-1H-indol-5-yl)piperidin-1-yl)-N-methyl-N-(1-methylpyrrolidin-3-yl)acetamide]
196	681	CCN(CC)C(=O)C1CCCN(CC(=O)N2CCC(c3ccc4[nH]c(-c5ccc(OC)c(OC)c5)c(C5CCOCC5)c4c3)CC2)C1 (stereo not shown) [Example 392, 1-(2-(4-(2-(3,4-dimethoxyphenyl)-3-(tetrahydro-2H-pyran-4-yl)-1H-indol-5-yl)piperidin-1-yl)-2-oxoethyl)-N,N-diethylpiperidine-3-carboxamide]
25	13	CCN(CCN(C)C)C(=O)CN1CCC(c2ccc3[nH]c(-c4ccc(OC)c(OC)c4)c(CC(F)(F)F)c3c2)CC1 [Example 372, 2-(4-(2-(3,4-dimethoxyphenyl)-3-(2,2,2-trifluoroethyl)-1H-indol-5-yl)piperidin-1-yl)-N-(2-(dimethylamino)ethyl)-N-ethylacetamide]
109	65	COc1ccc(-c2[nH]c3ccc(C4CCN(CC(=O)N5CCN(C(C)C)CC5)CC4)cc3c2CC(F)(F)F)cc1OC [Example 362, 2-(4-(2-(3,4-dimethoxyphenyl)-3-(2,2,2-trifluoroethyl)-1H-indol-5-yl)piperidin-1-yl)-1-(4-isopropylpiperazin-1-yl)ethan-1-one]
2280	544	COc1ccc(-c2[nH]c3ccc(C4CCN(C(=O)CN(C)C)CC4)cc3c2C)cc1OC [Example 402, 1-(4-(2-(3,4-dimethoxyphenyl)-3-methyl-1H-indol-5-yl)piperidin-1-yl)-2-(dimethylamino)ethan-1-one]
43	16	COc1ccc(-c2[nH]c3ccc(C4CCN(CC(=O)NCCC5CCCN5C)CC4)cc3c2CC(F)(F)F)cc1OC (stereo not shown) [Example 360, 2-(4-(2-(3,4-dimethoxyphenyl)-3-(2,2,2-trifluoroethyl)-1H-indol-5-yl)piperidin-1-yl)-N-(2-(1-methylpyrrolidin-2-yl)ethyl) acetamide]
40	9	COc1ccc(-c2[nH]c3ccc(C4CCN(CC(=O)NCCCCN5CCCC5)CC4)cc3c2CC(F)(F)F)cc1OC [Example 388, 2-(4-(2-(3,4-dimethoxyphenyl)-3-(2,2,2-trifluoroethyl)-1H-indol-5-yl)piperidin-1-yl)-N-(4-(pyrrolidin-1-yl)butyl)acetamide]
